Legend:
[1] = cited from earlier work
Human pancreatic lipase = target: T1, Human pancreatic lipase (Homo sapiens, UniProt P16233); assay: Pancreatic Lipase (PL) inhibitory test (Lipase-PS kit); assay type: biochemical; conditions: FIG. 3 / FIG. 14
T1 construct: purchased Sigma-Aldrich
T1 sequence (P16233 17-465): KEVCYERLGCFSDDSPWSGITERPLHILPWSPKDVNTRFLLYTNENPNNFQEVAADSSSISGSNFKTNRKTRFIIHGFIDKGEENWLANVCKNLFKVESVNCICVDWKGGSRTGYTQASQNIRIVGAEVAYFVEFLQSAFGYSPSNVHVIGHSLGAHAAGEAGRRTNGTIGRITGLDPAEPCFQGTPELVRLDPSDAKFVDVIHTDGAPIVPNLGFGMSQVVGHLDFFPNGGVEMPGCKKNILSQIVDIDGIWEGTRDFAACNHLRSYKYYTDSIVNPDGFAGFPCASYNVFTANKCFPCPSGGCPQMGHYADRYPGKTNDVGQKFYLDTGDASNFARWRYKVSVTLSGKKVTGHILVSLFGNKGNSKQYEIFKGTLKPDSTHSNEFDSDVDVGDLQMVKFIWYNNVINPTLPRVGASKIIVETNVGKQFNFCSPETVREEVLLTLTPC
T1 sequence (P04118 23-112 partner): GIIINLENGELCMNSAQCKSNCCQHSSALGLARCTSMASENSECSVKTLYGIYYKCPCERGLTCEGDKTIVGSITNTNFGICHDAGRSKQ
Experimental: A Pancreatic Lipase (PL) inhibitory test was performed with a commercial kit (Lipase-PSTM Trinity Biotech USA, Jamestown, N.Y.). Lipase-PSTM reagents were obtained from Trinity Biotech USA (Lipase-PSTM was manufactured by Sigma Diagnostics (Procedure No. 805, Sigma-Aldrich, St. Louis, Mo. until 2003)). […] Louis, Mo.). […] Activator reagent (300 μL) was added and mixed by gentle inversion and the samples were incubated again for 3 min. at 37° C. The recorded rate of increase in absorbance at 550 nm due to the formation of quinone diimine dye was used to determine the pancreatic lipase activity in the samples prepared, as detailed in the literature. Lott, J. A., et al., Lipase Isoforms and Amylase Isoenzymes: Assays and Application in the Diagnosis of Acute Pancreatitis, Clinical Chemistry, 37, 361 (1991); Moreno […]., Fried […]., 2003, Inhibitory effects of grape seed extract on lipases, Nutrition 19, 876-879 (hereinafter “Moreno et al. 2003”).

inhibitory effect on in vitro pancreatic lipase (in words) (Human pancreatic lipase) | SMILES | diarrhea (in words) ([1]; literature) | inhibition of dietary fat absorption ([1]; recommended therapeutic dose of 120 mg three times a day) | inhibitory effect on in vitro pancreatic lipase (in words) (Human pancreatic lipase; listed as Esculetin)
– | CCCCCCCCCCC[C@@H](C[C@@H]1OC(=O)[C@H]1CCCCCC)OC(=O)[C@H](CC(C)C)NC=O [Orlistat] | common side effect | about 30% | –
particularly strong inhibitory effect | O=c1ccc2cc(O)c(O)cc2o1 [esculetin, 6,7-dihydroxycoumarin] | – | – | strong inhibitory effect on PL in a dose dependent manner

— patent US20050271755A1, “Phytomedicinal compositions for the control of lipid accumulation and metabolism in mammals” (priority 2004, published 2005)
